Data from patent publication US20240262806A1, “INHIBITORS OF NLRP3” (PTC THERAPEUTICS, INC., priority 2021, published 2024).
Counter-ions that a name gives are not always drawn.

Test system: NLRP3 inflammasome
Test: IL-1β Secretion Assay (NLRP3-dependent IL-1β secretion in PMA-differentiated THP-1 cells, nigericin activation, HTRF)
Type: cell-based
Conditions: Homo sapiens, THP-1, THP-1 cells, 100 ng/mL PMA 24 h, compound 20 h, 2.5 μM Nigericin 3 h; read-out: IC50 IL-1β Inhibition
Procedure, shortened: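 PMA-differentiated THP-1 cells in RPMI with 5% FBS were treated with compounds at 7 concentrations in threefold DMSO dilutions. NLRP3 was activated with nigericin and secreted IL-1β measured by HTRF. IC50 from a logistic fit of percent inhibition versus concentration.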

SMILES | IC50 [nM]
CO[C@H]1CCC[C@@H](Nc2nnc(-c3ccc(C(F)(F)F)cc3OC(F)F)c3cccn23)C1 [Compound I-362] | 10 to 100
Oc1cc(C(F)(F)F)cc(F)c1-c1nnc(N[C@@H]2CCCOC2)n2cccc12 [Compound I-395] | 10 to 100
Oc1cc(C2CC2)cc(F)c1-c1nnc(N[C@@H]2CCCOC2)n2cccc12 [Compound I-423] | 10 to 100
Cc1ccc(-c2nnc(N[C@@H]3CCCN(CC(C)(C)O)C3)n3cccc23)c(O)c1 [Compound I-367] | 10 to 100
Oc1cc(C(F)(F)F)ccc1-c1nnc(N[C@@H]2CCCN(CC(F)F)C2)c2cnccc12 [Compound I-277] | < 1
CN1CCC[C@@H](Nc2nnc(-c3ccc(C(F)(F)F)cc3O)c3cscc23)C1 [Compound I-250] | < 1
Cn1cc(CNc2nnc(-c3ccc(C(F)(F)F)cc3O)c3ccncc23)cn1 [Compound I-174] | 10 to 100
Cc1cc(F)c(-c2nnc(N[C@@H]3CCCN(C)C3)n3cccc23)c(OC(F)F)c1 [Compound I-428] | 10 to 100
CCN1CCC[C@H]1CNc1nnc(-c2ccc(C(F)(F)F)cc2O)c2ccncc12 [Compound I-113] | < 1
COc1cc(C(F)(F)F)ccc1-c1nnc(N2CCCC(N(C)C)C2)c2ccncc12 (stereo not drawn) [Compound I-162] | 10 to 100
O[C@H]1CCC[C@@H](Nc2nnc(-c3ccc(C(F)(F)F)cc3OC(F)F)c3cccn23)C1 [Compound I-361, (1S,3R)-3-[[1-[2-(Difluoromethoxy)-4-(trifluoromethyl)phenyl]pyrrolo[1,2-d][1,2,4]triazin-4-yl]amino]cyclohexanol] | 1 to 10
CCOC(=O)[C@@H]1CC[C@@H](Nc2nnc(-c3ccc(C(F)(F)F)cc3O)c3ccncc23)CN1 [Compound I-266, Ethyl (2S,5R)-5-((1-(2-hydroxy-4-(trifluoromethyl)phenyl)pyrido[3,4-d]pyridazin-4-yl)amino)piperidine-2-carboxylate] | < 1
CN1CCC[C@@H](Nc2nnc(-c3ccc(Cl)cc3C(F)F)c3ccncc23)C1 [Compound I-239] | 1 to 10
Oc1cc(C2CC2)ccc1-c1nnc(N[C@@H]2CCCN(C3CCOCC3)C2)n2cccc12 [Compound I-340] | 1 to 10
CN1C[C@H](F)C[C@@H](Nc2nnc(-c3ccc(C(F)(F)F)cc3O)c3c(F)ccn23)C1 [Compound I-596] | 1 to 10
Cc1ccc(-c2nnc(N[C@@H]3CCCN(C)C3)c3ccccc23)c(O)c1F [Compound I-51] | < 1
COc1nc(C)ccc1-c1nnc(N[C@@H]2CCCN(C)C2)c2ccccc12 [Compound I-160] | 100 to 300
Oc1cc(C(F)(F)F)ccc1-c1nnc(N[C@@H]2CCCN(CCCF)C2)c2cnccc12 [Compound I-294] | < 1
CN1CCC[C@@H](Nc2nnc(-c3ccc(Br)cc3OC(F)(F)F)c3cccn23)C1 [Compound I-504] | < 1
CC(C)(O)CN1CCC[C@@H](Nc2nnc(-c3ccc(C(F)(F)F)cc3O)c3ccncc23)C1 [Compound I-286] | < 1
CN1C[C@H](O)C[C@@H](Nc2nnc(-c3ccc(C(F)(F)F)cc3O)c3c(F)ccn23)C1 [Compound I-597] | 10 to 100

SMILES | IC50 [nM]
CN1CCC[C@@H](Nc2nnc(-c3ccc(C(F)(F)F)cc3OC(F)F)c3c2CCC3)C1 [Compound I-236] | 1 to 10
OCCN1CCC[C@@H](Nc2nnc(-c3ccc(C4CC4)cc3C(F)F)c3cccn23)C1 [Compound I-509] | 1 to 10
CC(C)c1ccc(-c2nnc(N[C@@H]3CCCN(C)C3)c3cnccc23)c(C(C)C)c1 [Compound I-207] | 1 to 10
Oc1cc(C(F)(F)F)ccc1-c1nnc(N[C@H]2CNCC[C@H]2F)c2cnccc12 [Compound I-301] | 1 to 10
C[C@H](O)CNc1nnc(-c2ccc(C(F)(F)F)cc2O)c2cccn12 [Compound I-473] | 10 to 100
C[C@]1(O)C[C@@H](Nc2nnc(-c3c(O)cc(Cl)cc3F)c3cccn23)C1 [Compound I-434] | 1 to 10
CN1CCC[C@@H](Nc2nnc(-c3ccc(C4CCOC4)cc3O)c3ccccc23)C1 (stereo partly drawn) [Compound I-61] | 1 to 10
CN1CCC[C@@H](Nc2nnc(-c3ccc(C4CC4)cc3O)c3ccccc23)C1 [Compound I-49] | < 1
CN1CCC[C@@H](Nc2nnc(-c3ccc(Cl)cc3C(F)F)c3cccn23)C1 [Compound I-443, 1-[4-Chloro-2-(difluoromethyl)phenyl]-N-[(3R)-1-methyl-3-piperidyl]pyrrolo[1,2-d][1,2,4]triazin-4-amine] | 1 to 10
Cc1cc(O)c(-c2nnc(N[C@@H]3CCCN(C)C3)c3ccccc23)cc1F [Compound I-18] | 1 to 10
CN1CCC[C@@H](Nc2nnc(-c3ccc(Cl)cc3OC(F)F)c3ccncc23)C1 [Compound I-132] | < 1
CN1CCCC[C@H](Nc2nnc(-c3ccc(C(F)(F)F)cc3O)c3ccncc23)C1 [Compound I-186] | 10 to 100
CN1CCC[C@@H](Nc2nnc(-c3cccc(Cl)c3O)c3ccncc23)C1 [Compound I-76] | < 1
CCN1CCC[C@@H](Nc2nnc(-c3c(O)cc(C(F)(F)F)cc3F)c3cccn23)C1 [Compound I-414] | < 1
Cc1cc(O)c(-c2nnc(N[C@@H]3CCCN(C)C3)n3cccc23)c(F)c1 [Compound I-342, 3-Fluoro-5-methyl-2-[4-[[(3R)-1-methyl-3-piperidyl]amino]pyrrolo[1,2-d][1,2,4]triazin-1-yl]phenol] | 1 to 10
CCN1C[C@H](F)C[C@@H](Nc2nnc(-c3ccc(C(F)(F)F)cc3OC(F)F)c3cccn23)C1 [Compound I-538] | 1 to 10
CN1CCC[C@@H](Nc2nnc(-c3ccc(Br)cc3O)c3cccn23)C1 [Compound I-484, (R)-5-Bromo-2-(4-((1-methylpiperidin-3-yl)amino)pyrrolo[1,2-d][1,2,4]triazin-1-yl)phenol] | 1 to 10
CN1CCC[C@@H](Nc2nnc(-c3cnc(C#N)cc3O)c3ccccc23)C1 [Compound I-74] | 10 to 100
Oc1cc(C(F)(F)F)ccc1-c1nnc(N[C@@H]2CCCN(C3CC(CC(F)F)C3)C2)c2cnccc12 (stereo partly drawn) [Compound I-257] | 1 to 10
CC(C)N1CCC[C@@H](Nc2nnc(-c3ccc(C(F)(F)F)cc3O)c3cccn23)C1 [Compound I-480] | 1 to 10
CN1CCC[C@@H](Nc2nnc(-c3ccc(C(F)(F)F)cc3C#N)c3ccccc23)C1 [Compound I-131] | 1 to 10

SMILES | IC50 [nM]
CCN1CCC[C@@H](Nc2nnc(-c3ccc(C(F)(F)F)cc3O)c3cccn23)C1 [Compound I-479] | < 1
Oc1cc(C(F)(F)F)ccc1-c1nnc(N[C@H]2CNC[C@@H](O)C2)c2ccccc12 [Compound I-53] | 1 to 10
COc1cc(O)c(-c2nnc(N[C@@H]3CCCN(C)C3)n3nc(C)cc23)c(F)c1 [Compound I-551] | < 1
Cc1cnc(-c2nnc(N[C@@H]3CCCN(C)C3)c3cnccc23)c(O)c1 [Compound I-195] | 1 to 10
CN1CCC(c2ccc(-c3nnc(N[C@@H]4CCCN(C)C4)c4ccccc34)c(O)c2)C1 (stereo partly drawn) [Compound I-107] | 10 to 100
Cc1cc(OC(F)F)c(-c2nnc(N[C@@H]3CCCN(C)C3)c3cnccc23)cc1F [Compound I-178] | 1 to 10
Oc1cc(C(F)(F)F)cc(F)c1-c1nnc(N[C@@H]2CCCN(C3CCOCC3)C2)n2cccc12 [Compound I-430] | 1 to 10
CN1CCC[C@@H](Nc2nnc(-c3ccc(Cl)cc3O)c3cccnc23)C1 [Compound I-67] | < 1
CCN1CCC[C@@H](Nc2nnc(-c3c(O)cc(C4CC4)cc3F)c3cccn23)C1 [Compound I-495] | < 1
CCOc1cc(O)c(-c2nnc(N[C@H]3C[C@@](C)(O)C3)n3cccc23)c(F)c1 [Compound I-629] | 10 to 100
CN1CCC[C@@H](Cc2nnc(-c3ccc(C(F)(F)F)cc3O)c3ccccc23)C1 [Compound I-96, (S)-2-(4-((1-methylpiperidin-3-yl)methyl)phthalazin-1-yl)-5-(trifluoromethyl)phenol] | > 300
CN1CCC[C@@H](Nc2nnc(-c3ccc(C(F)(F)F)cc3O)c3nccn23)C1 [Compound I-398, 2-[5-[[(3R)-1-Methyl-3-piperidyl]amino]imidazo[1,2-d][1,2,4]triazin-8-yl]-5-(trifluoromethyl)phenol formic acid salt] | > 300
CN1CCC[C@@H](Nc2nnc(-c3ccc(Br)cc3O)c3ccnn23)C1 [Compound I-452] | 1 to 10
CN1CCC[C@@H](Oc2nnc(-c3ccc(C(F)(F)F)cc3O)c3ccccc23)C1 [Compound I-29] | 1 to 10
CC(C)(O)CNc1nnc(-c2ccc(C(F)(F)F)cc2C(F)(F)F)c2cccn12 [Compound I-531] | 10 to 100
Oc1cc(Br)ccc1-c1nnc(N[C@@H]2CCCNC2)n2cccc12 [Compound I-490, (R)-5-Bromo-2-(4-(piperidin-3-ylamino)pyrrolo[1,2-d][1,2,4]triazin-1-yl) phenol] | 1 to 10
CN1CCC[C@@H](Nc2nnc(-c3ccc(C(F)(F)F)cc3O)c3c2CCCCC3)C1 [Compound I-36, (R)-2-(4-((1-Methylpiperidin-3-yl)amino)-6,7,8,9-tetrahydro-5H-cyclohepta[d]pyridazin-1-yl)-5-(trifluoromethyl)phenol] | < 1
CCN1CCC[C@@H](Nc2nnc(-c3ccc(C(F)(F)F)cc3OC(F)F)c3cncn23)C1 [Compound I-574, (R)-1-(2-(Difluoromethoxy)-4-(trifluoromethyl)phenyl)-N-(1-ethylpiperidin-3-yl)imidazo[1,5-d][1,2,4]triazin-4-amine] | < 1
CN1CCC[C@@H](Nc2nnc(-c3ccc(C(F)(F)F)cc3CO)c3ccncc23)C1 [Compound I-190] | 10 to 100
Cc1cc(O)c(-c2nnc(N[C@@H]3C[C@@H](F)CN(C)C3)n3cccc23)c(F)c1 [Compound I-444] | < 1
CN1CC[C@@H](F)[C@@H](Nc2nnc(-c3ccc(C(F)(F)F)cc3O)c3cccn23)C1 [Compound I-486, 2-(4-(((3S,4R)-4-Fluoro-1-methylpiperidin-3-yl)amino)pyrrolo[1,2-d][1,2,4]triazin-1-yl)-5-(trifluoromethyl)phenol] | 10 to 100
